Measured values as given in patent US11452727B2, “Combination therapy for treating cancer” (Epizyme, Inc., priority 2017, dated 2022).

How the values were obtained:
Assay in all cases: In vitro combination study with tazemetostat, cell proliferation (Cell Titer Glo)
NCI-H460 = settings: 7 days tazemetostat pre-treatment, 6 days co-treatment with second agent
Description: (§1) Initial proliferation studies were performed to determine the IC50 of tazemetostat in each cell line. For the screen, tazemetostat was used at concentrations bracketed around the IC50 value. If 50% inhibitory concentration was not reached then tazemetostat was tested starting at 10 μM.
(§2) In order to study the effect of dual combination of tazemetostat and a second agent on cell proliferation, cells in log-linear phase growth rate were pre-treated with various concentrations of tazemetostat or DMSO for 7 days in flasks, plated in 384-well plates in the absence of compounds and co-treated on day 8 with tazemetostat or DMSO and the second agent serially diluted for additional 6 days (as depicted in FIG. 1). On day 15, plates were developed for endpoint analysis using Cell Titer Glo to measure ATP content, which was used as an indicator of cell viability. DMSO concentration was kept constant throughout the assay at 0.15% v/v.
(§3) All cell lines were obtained from American Type Culture Collection (ATCC; Rockville, Md.). […] A427, Calu-3, Calu-6 cell lines were cultured in EMEM+10% Fetal bovine serum (FBS)+1% v/v Penicillin/Streptomycin (P/S).

NCI-H1299 = settings: 7 days tazemetostat pre-treatment, 6 days co-treatment with second agent
Description: as §1, §2

Calu-3 = settings: 7 days tazemetostat pre-treatment, 6 days co-treatment with second agent
Description: as §1, §2
(§4) NCI-H1573 was cultured in DMEM: F12 Medium containing the following components: 0.02 mg/ml insulin, 0.01 mg/ml transferrin, 25 nM sodium selenite, 50 nM Hydrocortisone, 1 ng/ml Epidermal Growth Factor, 0.01 mM ethanolamine, 0.01 mM phosphorylethanolamine, 100 pM triiodothyronine, 0.5% (w/v) bovine serum albumin, 0.5 mM sodium pyruvate, 4.5 mM L-glutamine and 1% v/v Pen/Strep.

Calu-6 = settings: 7 days tazemetostat pre-treatment, 6 days co-treatment with second agent
NCI-H1793 = settings: 7 days tazemetostat pre-treatment, 6 days co-treatment with second agent
NCI-H838 = settings: 7 days tazemetostat pre-treatment, 6 days co-treatment with second agent
HCC827 = settings: 7 days tazemetostat pre-treatment, 6 days co-treatment with second agent
Description: as §1, §2, §4

A549 = settings: 7 days tazemetostat pre-treatment, 6 days co-treatment with second agent
Description: as §1, §2

NCI-H1573 = settings: 7 days tazemetostat pre-treatment, 6 days co-treatment with second agent
NCI-H661 = settings: 7 days tazemetostat pre-treatment, 6 days co-treatment with second agent
Description: as §1, §2, §3

NCI-H2110 = settings: 7 days tazemetostat pre-treatment, 6 days co-treatment with second agent
Description: as §1, §2

A427 = settings: A427; 7 days tazemetostat pre-treatment, 6 days co-treatment with second agent
NCI-H2030 = settings: 7 days tazemetostat pre-treatment, 6 days co-treatment with second agent
Description: as §1, §2

NCI-H2122 = settings: 7 days tazemetostat pre-treatment, 6 days co-treatment with second agent
Description: as §1, §2, §3

NCI-H522 = settings: 7 days tazemetostat pre-treatment, 6 days co-treatment with second agent
NCI-H1703 = settings: 7 days tazemetostat pre-treatment, 6 days co-treatment with second agent
NCI-H23 = settings: 7 days tazemetostat pre-treatment, 6 days co-treatment with second agent
NCI-H1993 = settings: 7 days tazemetostat pre-treatment, 6 days co-treatment with second agent
Description: as §1, §2

Compound: Nc1cc(C(F)(F)F)c(-c2cc(N3CCOCC3)nc(N3CCOCC3)n2)cn1 [BKM-120]
- combinatorial effect with tazemetostat (Loewe volume class) (NCI-H460): Add. (A value between −1 and 1 denoted “additivity”)
- combinatorial effect with tazemetostat (Loewe volume class) (NCI-H1299): Add. (A value between −1 and 1 denoted “additivity”)
- combinatorial effect with tazemetostat (Loewe volume class) (Calu-3): Add. (A value between −1 and 1 denoted “additivity”)
- combinatorial effect with tazemetostat (Loewe volume class) (Calu-6): Add. (A value between −1 and 1 denoted “additivity”)
- combinatorial effect with tazemetostat (Loewe volume class) (NCI-H1793): Syn. (Loewe volumes greater than 1 denoted “synergy”)
- combinatorial effect with tazemetostat (Loewe volume class) (NCI-H838): Syn. (Loewe volumes greater than 1 denoted “synergy”)
- combinatorial effect with tazemetostat (Loewe volume class) (HCC827): Add. (A value between −1 and 1 denoted “additivity”)
- combinatorial effect with tazemetostat (Loewe volume class) (A549): Add. (A value between −1 and 1 denoted “additivity”)
- combinatorial effect with tazemetostat (Loewe volume class) (NCI-H1573): Add. (A value between −1 and 1 denoted “additivity”)
- combinatorial effect with tazemetostat (Loewe volume class) (NCI-H661): Syn. (Loewe volumes greater than 1 denoted “synergy”)
- combinatorial effect with tazemetostat (Loewe volume class) (NCI-H2110): Add. (A value between −1 and 1 denoted “additivity”)
- combinatorial effect with tazemetostat (Loewe volume class) (A427): Syn. (Loewe volumes greater than 1 denoted “synergy”)
- combinatorial effect with tazemetostat (Loewe volume class) (NCI-H2030): Add. (A value between −1 and 1 denoted “additivity”)
- combinatorial effect with tazemetostat (Loewe volume class) (NCI-H2122): Add. (A value between −1 and 1 denoted “additivity”)
- combinatorial effect with tazemetostat (Loewe volume class) (NCI-H522): Add. (A value between −1 and 1 denoted “additivity”)
- combinatorial effect with tazemetostat (Loewe volume class) (NCI-H1703): Add. (A value between −1 and 1 denoted “additivity”)
- combinatorial effect with tazemetostat (Loewe volume class) (NCI-H23): Syn. (Loewe volumes greater than 1 denoted “synergy”)
- combinatorial effect with tazemetostat (Loewe volume class) (NCI-H1993): Syn. (Loewe volumes greater than 1 denoted “synergy”)
